Results: a compilation of properties of binary mixtures (doi:10.1021/ie501956x)

Test: xn = mol fraction of the nth substance listed
Details: 101 kPa

CCO + CC(=O)[O-].CC[n+]1ccn(C)c1
x1 = 1
Details | viscosity [mPa·s]
278.15 K | 1.582
288.15 K | 1.31
298.15 K | 1.081
308.15 K | 0.899
328.15 K | 0.638

CC(=O)[O-].CC[n+]1ccn(C)c1 + CCO
viscosity [mPa·s]
Details | x2 = 0 | x2 = 0.1 | x2 = 0.201 | x2 = 0.2999 | x2 = 0.4002 | x2 = 0.5001 | x2 = 0.6 | x2 = 0.7 | x2 = 0.8 | x2 = 0.9
278.15 K | 690 | 462 | – | 149.8 | 86.7 | 44.6 | 23.61 | 12.96 | 6.55 | –
288.15 K | – | – | 130.8 | 81.5 | 49.1 | 28.97 | 16.59 | 9.3 | – | 2.751
298.15 K | 139 | 107.7 | 73.3 | 49.2 | – | – | 12.2 | 7.2 | 4.145 | 2.264
308.15 K | 77.3 | 62.8 | 45.4 | – | 21.86 | 14.48 | – | 5.71 | – | 1.885
318.15 K | 47.4 | – | – | – | – | 10.91 | – | 4.64 | 2.829 | –
328.15 K | 31.3 | 26.89 | 21 | 15.99 | 11.82 | 8.49 | 5.84 | – | 2.391 | 1.355
338.15 K | – | 19.14 | 15.4 | 12.05 | 9.18 | 6.77 | 4.79 | 3.218 | – | 1.165
